For one test, the system named is SKOV-3 cells. Put plainly: Survival MTT assay, SKOV-3. Particulars: Homo sapiens, SK-OV-3, 72 h, read-out: SKOV-3 EC50. It is filed as cell-based. How it is done:
(§1) One day prior the treatment with compound, 2000 to 4000 cells per well were plated in a tissue culture treated 96 well format dish with 100 ul of media and incubated at 37° C., 5% CO2. On the day of compound treatment, compounds were diluted with cell culture media to a working stock concentration of 2×. 100 uL of diluted compound were then added to each well. The treated plate was incubated for 72 h at 37° C., 5% CO2. Upon incubation, the cell viability was assessed as followed 20 uL of MTT reagent at 5 mg/ml were added per well to cell plate. The plate was incubated for 2 h at 37° C. in presence of 5% CO2. The supernatant was then removed from the plate and 100 uL of isopropanol were added. The absorbance was measured in a TECAN spectrophotometer at 570 nm. The percentage of viability was expressed in percentage of the signal obtained with non treated cells.
A general note: Tetrazolium dyes change colour on reduction, which living cells bring about.

The next test has as its system MDA-MB231 cells. As to the kind of experiment: Survival MTT assay, MDA-MB-231. It counts as cell-based. Particulars: Homo sapiens, 72 h. How it is done: as §1

For the compound `CN[C@@H](C)C(=O)N[C@H](C(=O)N1C[C@@H](OCC#CC#CCO[C@H]2C[C@@H](C(=O)N[C@@H]3CCCc4ccccc43)N(C(=O)[C@@H](NC(=O)[C@H](C)NC)C(C)(C)C)C2)C[C@H]1C(=O)N[C@@H]1CCCc2ccccc21)C(C)(C)C` [Compound 1], the EC50 with SKOV-3 cells and in the test on MDA-MB231 cells was below 50 nM in each case.
In the case of `CN[C@@H](C)C(=O)N[C@H](C(=O)C1C[C@@H](NC(=O)CCCCCCCCC(=O)N[C@H]2C[C@@H](C(=O)N[C@@H]3CCCc4ccccc43)N(C(=O)[C@@H](NC(=O)[C@H](C)NC)C(C)(C)C)C2)C[C@H]1C(=O)N[C@@H]1CCCc2ccccc21)C(C)(C)C` (some centres unmarked) [Compound 2], the EC50 in the test with SKOV-3 cells and in the test with MDA-MB231 cells was below 50 nM in each case.
As to `CC(C)(C)[C@H](NC(=O)[C@@H](N)CO)C(=O)N1C[C@@H](OCC#CC#CCO[C@H]2C[C@@H](C(=O)N[C@@H]3CCCc4ccccc43)N(C(=O)[C@@H](NC(=O)[C@@H](N)CO)C(C)(C)C)C2)C[C@H]1C(=O)N[C@@H]1CCCc2ccccc21` [Compound 5], the EC50 in the test with MDA-MB231 cells is above 1000 nM.
On to `CN[C@@H](C)C(=O)N[C@H](C(=O)N1C[C@@H](NC(=O)c2cccc(C(=O)N[C@H]3C[C@@H](C(=O)N[C@@H]4CCCc5ccccc54)N(C(=O)[C@@H](NC(=O)[C@H](C)NC)C(C)(C)C)C3)c2)C[C@H]1C(=O)N[C@@H]1CCCc2ccccc21)C(C)(C)C` [Compound 40], for which, in the test on SKOV-3 cells, the EC50 was below 50 nM.
Still for that read-out and setting: with `CN[C@@H](C)C(=O)N[C@H](C(=O)N1C[C@@H](NC(=O)c2cncc(C(=O)N[C@H]3C[C@@H](C(=O)N[C@@H]4CCCc5ccccc54)N(C(=O)[C@@H](NC(=O)[C@H](C)NC)C(C)(C)C)C3)c2)C[C@H]1C(=O)N[C@@H]1CCCc2ccccc21)C(C)(C)C` [Compound 41] the figure was below 50 nM; with `CN[C@@H](C)C(=O)N[C@H](C(=O)N1C[C@@H](NC(=O)c2cccc(C(=O)N[C@H]3C[C@@H](C(=O)N[C@@H]4CCCc5ccccc54)N(C(=O)[C@@H](NC(=O)[C@H](C)NC)C(C)(C)C)C3)n2)C[C@H]1C(=O)N[C@@H]1CCCc2ccccc21)C(C)(C)C` [Compound 43], below 250 nM.
Same read-out and setting: with `CN[C@@H](C)C(=O)N[C@H](C(=O)N1C[C@@H](NC(=O)Nc2ccc(NC(=O)N[C@H]3C[C@@H](C(=O)N[C@@H]4CCCc5ccccc54)N(C(=O)[C@@H](NC(=O)[C@H](C)NC)C(C)(C)C)C3)cc2)C[C@H]1C(=O)N[C@@H]1CCCc2ccccc21)C(C)(C)C` [Compound 44] the figure was below 50 nM; with `CN[C@@H](C)C(=O)N[C@H](C(=O)N1C[C@@H](NC(=O)c2ccc(C(=O)N[C@H]3C[C@@H](C(=O)NCc4ccccc4)N(C(=O)[C@@H](NC(=O)[C@H](C)NC)C(C)(C)C)C3)cc2)C[C@H]1C(=O)NCc1ccccc1)C(C)(C)C` [Compound 46], below 250 nM; with `CN[C@@H](C)C(=O)N[C@H](C(=O)N1C[C@@H](NC(=O)c2ccc(C(=O)N[C@H]3C[C@@H](C(=O)NC4c5ccccc5-c5ccccc54)N(C(=O)[C@@H](NC(=O)[C@H](C)NC)C(C)(C)C)C3)cc2)C[C@H]1C(=O)NC1c2ccccc2-c2ccccc21)C(C)(C)C` [Compound 47], below 50 nM.
The same measure, in the same setting: with `CN[C@@H](C)C(=O)N[C@H](C(=O)N1C[C@@H](NC(=O)c2ccc(C(=O)N[C@H]3C[C@@H](C(=O)NCc4cccc(-c5ccccc5)c4)N(C(=O)[C@@H](NC(=O)[C@H](C)NC)C(C)(C)C)C3)cc2)C[C@H]1C(=O)NCc1cccc(-c2ccccc2)c1)C(C)(C)C` [Compound 48] the figure was below 250 nM; with `CN[C@@H](C)C(=O)N[C@H](C(=O)N1C[C@@H](NC(=O)c2ccc(C(=O)N[C@H]3C[C@@H](C(=O)N[C@H](C)c4ccccc4)N(C(=O)[C@@H](NC(=O)[C@H](C)NC)C(C)(C)C)C3)cc2)C[C@H]1C(=O)N[C@H](C)c1ccccc1)C(C)(C)C` [Compound 49], below 50 nM; with `CN[C@@H](C)C(=O)N[C@H](C(=O)N1C[C@@H](NC(=O)c2ccc(C(=O)N[C@H]3C[C@@H](C(=O)N[C@@H](C)c4ccccc4)N(C(=O)[C@@H](NC(=O)[C@H](C)NC)C(C)(C)C)C3)cc2)C[C@H]1C(=O)N[C@@H](C)c1ccccc1)C(C)(C)C` [Compound 50], below 250 nM.
On to `CN[C@@H](C)C(=O)N[C@H](C(=O)N1C[C@@H](NC(=O)c2ccc(C(=O)N[C@H]3C[C@@H](C(=O)NC(c4ccc(OC)cc4)c4ccc(OC)cc4)N(C(=O)[C@@H](NC(=O)[C@H](C)NC)C(C)(C)C)C3)cc2)C[C@H]1C(=O)NC(c1ccc(OC)cc1)c1ccc(OC)cc1)C(C)(C)C` [Compound 51], for which, in the test with SKOV-3 cells, the concentration giving a half-maximal response (EC50) was below 250 nM.
Turning to `CN[C@@H](C)C(=O)N[C@H](C(=O)N1C[C@@H](NC(=O)C2CCC(C(=O)N[C@H]3C[C@@H](C(=O)N[C@@H]4CCCc5ccccc54)N(C(=O)[C@@H](NC(=O)[C@H](C)NC)C(C)(C)C)C3)CC2)C[C@H]1C(=O)N[C@@H]1CCCc2ccccc21)C(C)(C)C` (some centres unmarked) [Compound 52], the EC50 in the test on SKOV-3 cells was below 50 nM.
On the same count and under the same terms, the same measure for `CC[C@H](N)C(=O)N[C@H](C(=O)N1C[C@@H](NC(=O)c2ccc(C(=O)N[C@H]3C[C@@H](C(=O)N[C@@H]4CCCc5ccccc54)N(C(=O)[C@@H](NC(=O)[C@@H](N)CC)C(C)(C)C)C3)cc2)C[C@H]1C(=O)N[C@@H]1CCCc2ccccc21)C(C)(C)C` [Compound 53]: above 1000 nM; for `CN[C@@H](C)C(=O)N[C@H](C(=O)N1C[C@@H](NC(=O)c2ccc(C(=O)N[C@H]3C[C@@H](C(=O)N[C@@H](CO)c4ccccc4)N(C(=O)[C@@H](NC(=O)[C@H](C)NC)C(C)(C)C)C3)cc2)C[C@H]1C(=O)N[C@@H](CO)c1ccccc1)C(C)(C)C` [Compound 54]: above 1000 nM; for `CN[C@@H](C)C(=O)N[C@H](C(=O)N1C[C@@H](NC(=O)c2ccc(C(=O)N[C@H]3C[C@@H](C(=O)N[C@@H]4CCCc5ccccc54)N(C(=O)[C@@H](NC(=O)[C@H](C)NC)C(C)(C)C)C3)cc2)C[C@H]1C(=O)N[C@@H]1CCCc2ccccc21)C(C)(C)C` [Compound 55]: below 50 nM.
Take `CN[C@@H](C)C(=O)N[C@H](C(=O)N1C[C@@H](NS(=O)(=O)c2ccc3cc(S(=O)(=O)N[C@H]4C[C@@H](C(=O)N[C@@H]5CCCc6ccccc65)N(C(=O)[C@@H](NC(=O)[C@H](C)NC)C(C)(C)C)C4)ccc3c2)C[C@H]1C(=O)N[C@@H]1CCCc2ccccc21)C(C)(C)C` [Compound 56]: in the test on SKOV-3 cells, the 50% effective concentration (EC50) was below 50 nM.
`CN[C@@H](C)C(=O)N[C@H](C(=O)N1C[C@@H](CC(=O)c2ccc3ccc(C(=O)N[C@H]4C[C@@H](C(=O)N[C@@H]5CCCc6ccccc65)N(C(=O)[C@@H](NC(=O)[C@H](C)NC)C(C)(C)C)C4)cc3c2)C[C@H]1C(=O)N[C@@H]1CCCc2ccccc21)C(C)(C)C` [Compound 57]: the concentration giving a half-maximal response (EC50) with SKOV-3 cells was below 50 nM.
The same measure, in the same setting: the same measure for `CN[C@@H](C)C(=O)N[C@H](C(=O)N1C[C@@H](NS(=O)(=O)c2ccc3ccc(S(=O)(=O)N[C@H]4C[C@@H](C(=O)N[C@@H]5CCCc6ccccc65)N(C(=O)[C@@H](NC(=O)[C@H](C)NC)C(C)(C)C)C4)cc3c2)C[C@H]1C(=O)N[C@@H]1CCCc2ccccc21)C(C)(C)C` [Compound 58]: below 250 nM; for `CN[C@@H](C)C(=O)N[C@H](C(=O)N1C[C@@H](NC(=O)c2ccc(C(=O)N[C@H]3C[C@@H](C(=O)N[C@H](CO)c4ccccc4)N(C(=O)[C@@H](NC(=O)[C@H](C)NC)C(C)(C)C)C3)cc2)C[C@H]1C(=O)N[C@H](CO)c1ccccc1)C(C)(C)C` [Compound 59]: below 250 nM.
The same measure, in the same setting: with `CN[C@@H](C)C(=O)N[C@H](C(=O)N1C[C@@H](NC(=O)c2ccc(C(=O)N[C@H]3C[C@@H](C(=O)NCc4ccccc4-c4ccccc4)N(C(=O)[C@@H](NC(=O)[C@H](C)NC)C(C)(C)C)C3)cc2)C[C@H]1C(=O)NCc1ccccc1-c1ccccc1)C(C)(C)C` [Compound 60] the figure was below 50 nM; with `CN[C@@H](C)C(=O)N[C@H](C(=O)N1C[C@@H](NC(=O)c2ccc(C(=O)N[C@H]3C[C@@H](C(=O)NC4Cc5ccccc5C4)N(C(=O)[C@@H](NC(=O)[C@H](C)NC)C(C)(C)C)C3)cc2)C[C@H]1C(=O)NC1Cc2ccccc2C1)C(C)(C)C` [Compound 61], below 50 nM; with `CN[C@@H](C)C(=O)N[C@H](C(=O)N1C[C@@H](NC(=O)c2ccc(C(=O)N[C@H]3C[C@@H](C(=O)N[C@H](COCc4ccccc4)c4ccccc4)N(C(=O)[C@@H](NC(=O)[C@H](C)NC)C(C)(C)C)C3)cc2)C[C@H]1C(=O)N[C@H](COCc1ccccc1)c1ccccc1)C(C)(C)C` [Compound 64], below 50 nM.

As usually defined, the EC50 is the midpoint of the concentration-response curve.
